Laboratory results published in patent US10428083B2, “Heterocyclylmethyl-thienouracile as antagonists of the adenosine-A2B-receptor” (BAYER PHARMA AKTIENGESELLSCHAFT, priority 2015, dated 2019).

These compounds were tested against human adenosine A2b receptor (Homo sapiens (Human), UniProt P29275) (assay: Cellular in vitro reporter gene test for A2b receptor activity (CHO-K1, CRE-luciferase, NECA stimulation)). Settings: recombinant CHO-K1 cell line, CRE-luciferase reporter, antagonism of EC50 concentration of NECA; in some cases means of several determinations, rounded to two significant figures; read-out: A2b receptor IC50.
Type: cell-based
Method: B-1. Cellular In Vitro Tests for Determining A2b Receptor Activity and Adenosine Receptor Selectivity
In the case of the A2a and A2b cell lines, this is a minimal promoter having a plurality of cAMP-responsive elements (CRE). Stimulation of the Gs-coupled A2b or A2a receptors by NECA ultimately leads, via formation of cAMP, to CRE-dependent induction of luciferase expression, which is detected 3 hours after the start of the incubation with NECA using a detection solution in a suitable luminometer. For testing the antagonists, initially, in a pre-experiment, the concentration of NECA which, at the test day in question, results in half-maximum stimulation of luciferase expression (EC50 concentration) is determined. By joint incubation of this EC50 concentration of NECA with the substances to be tested, it is possible to determine their antagonistic activity.

Sequence of human adenosine A2b receptor (P29275 whole entry): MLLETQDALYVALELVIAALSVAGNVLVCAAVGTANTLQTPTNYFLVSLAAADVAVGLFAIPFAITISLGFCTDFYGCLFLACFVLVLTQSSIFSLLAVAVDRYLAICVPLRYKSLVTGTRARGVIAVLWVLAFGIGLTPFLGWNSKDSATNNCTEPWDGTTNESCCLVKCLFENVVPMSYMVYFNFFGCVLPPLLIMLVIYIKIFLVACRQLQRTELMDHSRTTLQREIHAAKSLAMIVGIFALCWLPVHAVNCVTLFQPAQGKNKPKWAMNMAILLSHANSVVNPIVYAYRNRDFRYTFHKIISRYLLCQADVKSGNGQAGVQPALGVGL

| IC50 | Structure (SMILES) |
| --- | --- |
| 9.8 nM | COC(=O)N=C1NCCN1Cc1sc2c(c1C)c(=O)n(CC(F)(F)F)c(=O)n2CC1CCCO1 (racemic) [Example 384, Methyl [1-{[5-methyl-2,4-dioxo-1-(tetrahydrofuran-2-ylmethyl)-3-(2,2,2-trifluoroethyl)-1,2,3,4-tetrahydrothieno[2,3-d]pyrimidin-6-yl]methyl}imidazolidin-2-ylidene]carbamate] |
| 33 nM | COCCn1c(=O)c2c(C)c(CN3CCNC3=NC#N)sc2n(CC2CCCO2)c1=O (single isomer, unassigned) [Example 369, [1-{[3-(2-Methoxyethyl)-5-methyl-2,4-dioxo-1-(tetrahydrofuran-2-ylmethyl)-1,2,3,4-tetrahydrothieno[2,3-d]pyrimidin-6-yl]methyl}imidazolidin-2-ylidene]cyanamide] |
| 13 nM | CCn1c(=O)c2c(C)c(CN3CCNC3=NC#N)sc2n(CCC(F)(F)F)c1=O [Example 255, [1-{[3-Ethyl-5-methyl-2,4-dioxo-1-(3,3,3-trifluoropropyl)-1,2,3,4-tetrahydrothieno[2,3-d]pyrimidin-6-yl]methyl}imidazolidin-2-ylidene]cyanamide] |
| 130 nM | COCCn1c(=O)n(CC(C)(C)O)c(=O)c2c(C)c(CN3CCNC3=O)sc21 [Example 228, 3-(2-Hydroxy-2-methylpropyl)-1-(2-methoxyethyl)-5-methyl-6-[(2-oxoimidazolidin-1-yl)methyl]thieno[2,3-d]pyrimidine-2,4(1H,3H)-dione] |
| 33 nM | COCCn1c(=O)c2c(C)c(CN3CCNC3=NC(=O)OC)sc2n(CC2CCO2)c1=O (single isomer, unassigned) [Example 388, Methyl [1-{[3-(2-methoxyethyl)-5-methyl-1-(oxetan-2-ylmethyl)-2,4-dioxo-1,2,3,4-tetrahydrothieno[2,3-d]pyrimidin-6-yl]methyl}imidazolidin-2-ylidene]carbamate] |
| 4.7 nM | CCn1c(=O)c2c(C)c(Cn3[nH]ccc3=O)sc2n(CCOC)c1=O [Example 128, 3-Ethyl-1-(2-methoxyethyl)-5-methyl-6-[(5-oxo-2,5-dihydro-1H-pyrazol-1-yl)methyl]thieno[2,3-d]pyrimidine-2,4(1H,3H)-dione] |
| 9.9 nM | COC(=O)N=C1NCCN1Cc1sc2c(c1C)c(=O)n(CC(C)(C)C)c(=O)n2CC1CCCO1 (single isomer, unassigned) [Example 464, Methyl [1-{[3-(2,2-dimethylpropyl)-5-methyl-2,4-dioxo-1-(tetrahydrofuran-2-ylmethyl)-1,2,3,4-tetrahydrothieno[2,3-d]pyrimidin-6-yl]methyl}imidazolidin-2-ylidene]carbamate] |
| 37 nM | Cc1c(CN2CCNC2=NC#N)sc2c1c(=O)n(CC(F)(F)F)c(=O)n2CC1CCO1 (stereo not shown) [Example 359, [1-{[5-Methyl-1-(oxetan-2-ylmethyl)-2,4-dioxo-3-(2,2,2-trifluoroethyl)-1,2,3,4-tetrahydrothieno[2,3-d]pyrimidin-6-yl]methyl}imidazolidin-2-ylidene]cyanamide] |
| 16 nM | COCCn1c(=O)c2c(C)c(CN3CCNC3=NC(=O)OC)sc2n(CCOC)c1=O [Example 386, Methyl [1-{[1,3-bis(2-methoxyethyl)-5-methyl-2,4-dioxo-1,2,3,4-tetrahydrothieno[2,3-d]pyrimidin-6-yl]methyl}imidazolidin-2-ylidene]carbamate] |
| 7.7 nM | COCCn1c(=O)n(CC(F)F)c(=O)c2c(C)c(CN3CCNC3=S)sc21 [Example 43] |
| 1.2 nM | CCCCn1c(=O)n(CC)c(=O)c2c(C)c(CN3CCNC3=O)sc21 [Example 78, 1-Butyl-3-ethyl-5-methyl-6-[(2-oxoimidazolidin-1-yl)methyl]thieno[2,3-d]pyrimidine-2,4(1H,3H)-dione] |
| 9.9 nM | CCn1c(=O)c2c(C)c(CN3CCNC3=NC#N)sc2n(CC2CCCO2)c1=O (single isomer, unassigned) [Example 261, [1-{[3-Ethyl-5-methyl-2,4-dioxo-1-(tetrahydrofuran-2-ylmethyl)-1,2,3,4-tetrahydrothieno[2,3-d]pyrimidin-6-yl]methyl}imidazolidin-2-ylidene]cyanamide] |
| 37 nM | COCCn1c(=O)c2c(C)c(Cn3cc[nH]c3=O)sc2n(CC2CCCO2)c1=O (racemic) [Example 346, 3-(2-Methoxyethyl)-5-methyl-6-[(2-oxo-2,3-dihydro-1H-imidazol-1-yl)methyl]-1-(tetrahydrofuran-2-ylmethyl)thieno[2,3-d]pyrimidine-2,4(1H,3H)-dione] |
| 15 nM | Cc1c(CN2CCNC2=O)sc2c1c(=O)n(CC(C)C)c(=O)n2CC1CCO1 (racemic) [Example 194, 3-Isobutyl-5-methyl-1-(oxetan-2-ylmethyl)-6-[(2-oxoimidazolidin-1-yl)methyl]thieno[2,3-d]pyrimidine-2,4(1H,3H)-dione] |
| 2.5 nM | CCn1c(=O)c2c(C)c(CN3CCNC3=O)sc2n(CCCC(F)(F)F)c1=O [Example 49, 3-Ethyl-5-methyl-6-[(2-oxoimidazolidin-1-yl)methyl]-1-(4,4,4-trifluorobutyl)thieno[2,3-d]pyrimidine-2,4(1H,3H)-dione] |
| 7.1 nM | CCn1c(=O)c2c(C)c(CN3CCNC3=NC#N)sc2n(CC2CCO2)c1=O (single isomer, unassigned) [Example 257, [1-{[3-Ethyl-5-methyl-1-(oxetan-2-ylmethyl)-2,4-dioxo-1,2,3,4-tetrahydrothieno[2,3-d]pyrimidin-6-yl]methyl}imidazolidin-2-ylidene]cyanamide] |
| 13 nM | CCOCCn1c(=O)n(CC)c(=O)c2c(C)c(CN3CCNC3=O)sc21 [Example 60, 1-(2-Ethoxyethyl)-3-ethyl-5-methyl-6-[(2-oxoimidazolidin-1-yl)methyl]thieno[2,3-d]pyrimidine-2,4(1H,3H)-dione] |
| 6.4 nM | CCOCCn1c(=O)n(CC(F)(F)F)c(=O)c2c(C)c(CN3CCNC3=S)sc21 [Example 153, 1-(2-Ethoxyethyl)-5-methyl-6-[(2-thioxoimidazolidin-1-yl)methyl]-3-(2,2,2-trifluoroethyl)thieno[2,3-d]pyrimidine-2,4(1H,3H)-dione] |
| 9.4 nM | COCCn1c(=O)c2c(C)c(CN3CCNC3=NC#N)sc2n(CCC(F)(F)F)c1=O [Example 362, [1-{[3-(2-Methoxyethyl)-5-methyl-2,4-dioxo-1-(3,3,3-trifluoropropyl)-1,2,3,4-tetrahydrothieno[2,3-d]pyrimidin-6-yl]methyl}imidazolidin-2-ylidene]cyanamide] |
| 21 nM | CCn1c(=O)c2c(C)c(CN3CCNC3=O)sc2n(CC2CCCO2)c1=O (single isomer, unassigned; enantiomer 2) [Example 70, 3-Ethyl-5-methyl-6-[(2-oxoimidazolidin-1-yl)methyl]-1-(tetrahydrofuran-2-ylmethyl)thieno[2,3-d]pyrimidine-2,4(1H,3H)-dione (Enantiomer 2)] |
| 17 nM | COC(C)(C)Cn1c(=O)c2c(C)c(CN3CCNC3=O)sc2n(CCCF)c1=O [Example 237, 1-(3-Fluoropropyl)-3-(2-methoxy-2-methylpropyl)-5-methyl-6-[(2-oxoimidazolidin-1-yl)methyl]thieno[2,3-d]pyrimidine-2,4(1H,3H)-dione] |
| 8.1 nM | Cc1c(CN2CCNC2=O)sc2c1c(=O)n(CC(C)C)c(=O)n2CC1COC1 [Example 199, 3-Isobutyl-5-methyl-1-(oxetan-3-ylmethyl)-6-[(2-oxoimidazolidin-1-yl)methyl]thieno[2,3-d]pyrimidine-2,4(1H,3H)-dione] |
